Results from paper PMC3126777, “Selective anticancer activity of a hexapeptide with sequence homology to a non-kinase domain of Cyclin Dependent Kinase 4” (Molecular Cancer, 2011).

Assays:
[1] = test system: normal diploid human keratinocytes; assay: Morphological cytotoxicity in primary keratinocyte cultures; type: cell-based; conditions: 200 μM THR53 (Figure 2B)
Method: (§1) The appearances of the disintegrating colonies in Figure 4B were not dissimilar to those of "starbursts" earlier reported in human in vitro cancer cell colonies undergoing spontaneous cell death. Table 5 lists 11 cell lines with complete response to 200 μM THR53. This relatively homogeneous therapeutic response to the same critical dose of THR53 markedly contrasts with the wide range of variability of in-vitro dose response of different cancer cell lines typically seen with conventional chemotherapeutic agents In addition to showing lack of toxicity towards normal human diploid fibroblasts, THR53 and related cyclic amphiphilic PRGPRP-containing peptides were not cytotoxic to normal diploid human keratinocytes growing as primary cultures (Figure 2B) or to MRC5-hTERT immortalised fibroblasts (Figures 4A and 5A).

[2] = test system: normal diploid human fibroblasts; assay: In-vitro morphological cell viability screen, normal fibroblasts; type: cell-based; conditions: dose 200 μM
Method: A broad search for possible biological activity associated with the [sequence] peptide sequence was initially instituted by screening human bladder cancer cell lines for potential in-vitro morphological changes, compared to control cultures of normal diploid human fibroblasts at 4-8 passages from primary culture as controls. […] The peptides were dissolved, over a range of concentrations, in Ham's F12 + 10% FCS and introduced in 100 μL quantities to microwells containing 500 RT112 bladder cancer cells, or normal diploid human fibroblasts, in 200 μL of Ham's F12 + 10% FCS plated 24 hours earlier on 96 well plates.

[3] = test system: RT112 human bladder cancer cells; assay: Time lapse photomicrography, RT112; type: cell-based; conditions: RT112, 200 μM THR53, Ham's F12 + 10% FCS
Method: Progressive morphological changes in dying H460 cells exposed to 200 μM THR53 [additional file 1], contrasted with progressive cell division in untreated H460 cells [additional file 2] are shown as videos. Immortalised MRC5-hTERT fibroblasts, were unaffected by exposure to 200 μM THR53 except for some generalised slowing of growth (Figure 5A), [additional file 3] as compared to control, untreated, MRC5-hTERT cells [additional file 4]. RT112 cells were more sensitive to THR53 than H460 cells and died within 30 - 40 hours as compared to 96 hours for H460 and the majority of other human cancer cell lines investigated.
Figure 5 Time Lapse Photomicrography of MRC5-hTERT, RT112 human bladder cancer and […] human non-small cell lung cancer following exposure toTHR53. Cells were incubated in Ham's F12 + 10% FCS (control medium) or medium + 200 μM THR53. Morphological changes of vacuolation + cellar swelling are seen in RT112 at 33 hours after exposure to THR53 and in H460 at 90 hours after exposure to THR53. There was no evidence of cell blebbing or fragmentation. (see also videos)

G361 Melanoma = assay: Response of cancer cell line to 200 μM THR53 (morphology, clonogenic assay); type: cell-based, human; conditions: G361, 200 μM; morphological changes at 5 days, clonogenic assays at 15 days
Method: as §1
(§2) All cell lines were from certified sources.

MGHU-1 Carcinoma Bladder = assay: as above; type: cell-based, human; conditions: MGHU-1, 200 μM; morphological changes at 5 days, clonogenic assays at 15 days
Method: as §1, §2

[4] = test system: Cdk1 and Cdk4 expression in H460 human non-small cell lung cancer cells; assay: Western blotting of Cdk1 and Cdk4 expression, H460; type: cell-based; conditions: H460, 200 μM, 24 hours, Western blot
Description: This co-expression is unaffected by cytocidal doses of cisdiamminedichloroplatinum but can accompany spontaneous cancer cell death. Whether or not Cdk1/Cdk4 co-expression remained constant in cancer cells dying as a result of exposure to PRGPRP was thus examined by Western blotting.
as §2

[5] = test system: H1299 human non-small cell lung cancer cells; assay: Necrosis assay by Trypan Blue exclusion, H1299; type: cell-based
Method: (§3) Necrosis Assay Cells were plated in triplicate in 96 well plates at concentrations of 500 cells per well (HT1299, MCF-7) or 1000 cells per well (H460, MRC5-hTERT) in the presence or absence of the relevant compound and assessed by Trypan Blue exclusion At 2,3,4 and 7 days after plating. To assay, cells were trypsinised off, stained with trypan blue in isotonic medium and live and dead cells separately counted visually by haemocytomter. Each data point is the mean of results from triplicate wells (Solid lines - Live cells, Broken lines - Dead Cells; Blue - Control, Red - THR53 200 μM).

[6] = test system: H460 human non-small cell lung cancer cells; assay: Necrosis assay by Trypan Blue exclusion, H460; type: cell-based
Method: as §3

[7] = test system: MCF-7 human breast cancer cells; assay: Necrosis assay by Trypan Blue exclusion, MCF-7; type: cell-based
Method: as §3

MCF7 breast cancer cells = assay: Killing of cycling versus serum-deprived MCF-7 cells; type: cell-based, human
Description: Cell death, however, was not dependent on cell division in MCF-7, RT112 or H460. […] had no effect on cell cycle phase distribution in H460 cells (Figure 6B) and […] hexapeptide cancer cell killing was unrelated to endogenous levels of Cdk4 or Cyclin D1. […] A. Macroscopic appearances of cycling […]-treated MCF-7 human breast cancer cells in medium + 10% FCS (left hand panels) compared to the same cells held outside the cell cycle in medium + 0.1%FCS (right hand panel) B. […] C. Sequential Western blots of Cdk1 and Cdk4 expression in RT112 human bladder cancer cells at 0 - 10 days after exposure to 5 mM linear, end-capped, […].

H460 cells = assay: Autophagy Assay (Cyto-ID Green, flow cytometry); type: cell-based, human; conditions: H460, 100 μM, 72 h and 96 h
Method: Autophagy Assay was performed as recommended by the manufacturers' instructions (Enzo ENZ-51031-[…]). Briefly, H460 cells were seeded into 6 well plates at 2.5 × 10^5 and 1 × 10^5 cells/well. Immediately after cell plating, chloroquine or […] were added at the concentrations indicated. Following compound treatment, cells were washed once in PBS and resuspended in x1 Cyto-ID Green autophagy detection reagent and incubated at room temperature for 30 min. Immediately prior to analysis, propidium iodide (PI) solution was added to the cell suspension at a final concentration of 2.5 μg/ml, to assess cell death. Analysis was carried out using FACSCalibur (BD Biosciences). Cyto-ID Green autophagy reagent was measured in the FL-1 channel (530/30 nm bandpass filters with excitation at 488 nm) and PI measured in the FL-3 channel (670 nm longpass filters with excitation at 488 nm).

Cyc-[FPPRGPRPVKLALKLALK] (head to tail) [THR53, cyclic amphiphilic analogue, Cyc-[…]]
cytotoxicity to normal diploid human keratinocytes [1]: not cytotoxic | Cell Viability Normal Diploid Fibroblasts [2]: + + + | time at which morphological changes of vacuolation + cellular swelling are seen [3]: 33 hours | time to cell death [3]: 30 to 40 h | response to THR53 (G361 Melanoma): total cell death | response to THR53 (MGHU-1 Carcinoma Bladder): total cell death | Cdk4 expression [4]: complete disappearance | day at which necrotic cells are initially detectable ([5]; H1299, 200 μM): 3 days | necrosis detected by trypan blue uptake ([5]; H1299, 200 μM, 2, 3, 4 and 7 days after plating, triplicate wells): induces necrosis | day at which necrotic cells are initially detectable ([6]; H460, 200 μM): 3 days | necrosis detected by trypan blue uptake ([6]; H460, 200 μM, 2, 3, 4 and 7 days after plating, triplicate wells): induces necrosis | day at which necrotic cells are initially detectable ([7]; MCF-7, 200 μM): 3 days | necrosis detected by trypan blue uptake ([7]; MCF-7, 200 μM, 2, 3, 4 and 7 days after plating, triplicate wells): induces necrosis | effect on serum-deprived MCF7 cells (MCF7 breast cancer cells; medium + 0.1%FCS, cells held outside the cell cycle): no effect | effect on cycling MCF-7 cells (MCF7 breast cancer cells; medium +10% FCS): killed | autophagy, Cyto-ID Green mean fluorescent intensity compared with control (H460 cells): no difference
